Measured values taken from ChEMBL document CHEMBL1201862, “PubChem BioAssay data set” (2004).
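Exposure lasted 48 hours, with cells grown in 96-well plates and compounds tested at five concentrations. GI50: concentration for 50% inhibition of growth.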 The source made the active and inactive calls. Cut-off read from the data, not from the text of the source: active = GI50 up to about 1.1 µM and inactive = higher.

Tests used:
Experiment in all cases: NCI-60 cell line screen, 48 h
HCT-116 = tested on: HCT-116
HL-60 = tested on: HL-60
HOP-92 = tested on: HOP-92
HT-29 = tested on: HT-29
IGROV-1 = tested on: IGROV-1
KM12 = tested on: KM12
NCI-H226 = tested on: NCI-H226
NCI-H23 = tested on: NCI-H23
OVCAR-5 = tested on: OVCAR-5
OVCAR-8 = tested on: OVCAR-8
SF-268 = tested on: SF-268
SF-295 = tested on: SF-295
SK-MEL-28 = tested on: SK-MEL-28
SK-MEL-2 = tested on: SK-MEL-2
SK-MEL-5 = tested on: SK-MEL-5
SNB-19 = tested on: SNB-19
SR = tested on: SR
UACC-257 = tested on: UACC-257
UACC-62 = tested on: UACC-62
Malme-3M = tested on: Malme-3M

Measured: GI50

N=C(N)SCCc1ccncc1
inactive: HCT-116 > 100 µM | HL-60 > 100 µM | HOP-92 > 100 µM | HT-29 > 100 µM | IGROV-1 > 100 µM | KM12 > 100 µM | NCI-H226 > 100 µM | NCI-H23 > 100 µM | OVCAR-5 > 100 µM | OVCAR-8 > 100 µM | SF-268 > 100 µM | SF-295 > 100 µM | SK-MEL-28 > 100 µM | SK-MEL-2 > 100 µM | SK-MEL-5 > 100 µM | SNB-19 > 100 µM | SR > 100 µM | UACC-257 > 100 µM | UACC-62 > 100 µM

CCN(CC(=O)O)C(=O)c1cccnc1
inactive: HCT-116 > 100 µM | HOP-92 > 100 µM | HT-29 > 100 µM | IGROV-1 > 100 µM | KM12 > 100 µM | Malme-3M > 100 µM | NCI-H23 > 100 µM | OVCAR-5 > 100 µM | OVCAR-8 > 100 µM | SF-268 > 100 µM | SF-295 > 100 µM | SK-MEL-28 > 100 µM | SK-MEL-2 > 100 µM | SNB-19 > 100 µM | SR > 100 µM | UACC-257 > 100 µM | UACC-62 > 100 µM

N#Cc1ccsc1Nc1ccccc1[N+](=O)[O-]
inactive: HCT-116 > 100 µM | HOP-92 68.7 µM | IGROV-1 > 100 µM | KM12 > 100 µM | Malme-3M > 100 µM | NCI-H226 > 100 µM | NCI-H23 > 100 µM | OVCAR-5 > 100 µM | OVCAR-8 > 100 µM | SF-268 47 µM | SF-295 64.1 µM | SK-MEL-28 > 100 µM | SNB-19 52.2 µM | SR > 100 µM | UACC-257 > 100 µM | UACC-62 > 100 µM

CCC(CC)C(=O)OC[n+]1ccc(-c2c(COC(=O)NC(C)C)c(COC(=O)NC(C)C)c3n2CCC3)cc1
inactive: HL-60 > 100 µM | HOP-92 > 100 µM | IGROV-1 > 100 µM | NCI-H226 > 100 µM | NCI-H23 > 100 µM | OVCAR-8 > 100 µM | SF-295 > 100 µM | SK-MEL-5 > 100 µM | SNB-19 > 100 µM | SR 36.7 µM | UACC-257 > 100 µM

O=C(c1ccc2ccccc2c1O)N1CCCCC1
inactive: HCT-116 65.8 µM | HL-60 68.9 µM | HOP-92 78.9 µM | HT-29 > 100 µM | IGROV-1 > 100 µM | KM12 > 100 µM | NCI-H226 > 100 µM | NCI-H23 32.4 µM | OVCAR-8 68.2 µM | SF-268 > 100 µM | SF-295 92.9 µM | SK-MEL-28 > 100 µM | SK-MEL-2 > 100 µM | SK-MEL-5 34 µM | SNB-19 > 100 µM | SR > 10 µM | UACC-257 > 100 µM | UACC-62 > 100 µM

CC(C)OP(=O)(OC(C)C)c1nc(-c2ccccc2)n(-c2ccc([N+](=O)[O-])cc2)n1
inactive: HCT-116 > 100 µM | HL-60 > 100 µM | HOP-92 > 100 µM | HT-29 > 100 µM | IGROV-1 > 100 µM | KM12 > 100 µM | Malme-3M > 100 µM | NCI-H226 31.3 µM | NCI-H23 > 100 µM | OVCAR-5 > 100 µM | OVCAR-8 > 100 µM | SF-268 > 100 µM | SF-295 > 100 µM | SK-MEL-28 > 100 µM | SK-MEL-2 50.8 µM | SK-MEL-5 > 100 µM | SNB-19 > 100 µM | UACC-257 > 100 µM | UACC-62 > 100 µM

FC(F)(F)C1(Cl)C(Cl)(c2ccccc2)C1(Cl)c1ccccc1 (stereo not drawn)
inactive: HCT-116 11.9 µM | HL-60 17.7 µM | HOP-92 12.3 µM | HT-29 14.8 µM | IGROV-1 12.9 µM | KM12 15.6 µM | NCI-H226 13.9 µM | NCI-H23 14.3 µM | OVCAR-5 16.4 µM | OVCAR-8 18 µM | SF-268 17.3 µM | SF-295 15.8 µM | SK-MEL-28 14.9 µM | SK-MEL-2 15.7 µM | SK-MEL-5 14 µM | SNB-19 18.5 µM | SR 7.08 µM | UACC-257 14.6 µM | UACC-62 15.8 µM

O=C(C/C=C/c1ccccc1)c1ccccc1
inactive: HCT-116 17.4 µM | HL-60 16.1 µM | HOP-92 29 µM | HT-29 18.2 µM | IGROV-1 23.5 µM | KM12 11.1 µM | NCI-H226 29.5 µM | NCI-H23 15.1 µM | OVCAR-5 28.6 µM | OVCAR-8 15.7 µM | SF-268 20.7 µM | SF-295 44.4 µM | SK-MEL-28 27.2 µM | SK-MEL-5 19.5 µM | SR 12.4 µM | UACC-257 21.9 µM | UACC-62 12.6 µM

COc1ccc(-c2c(-c3ccccc3)c(C)nc3[nH]c(=S)[nH]c(=S)c23)cc1OC
inactive: HCT-116 22 µM | HL-60 31.8 µM | HOP-92 33.8 µM | HT-29 41 µM | IGROV-1 36.3 µM | KM12 18.5 µM | Malme-3M 30.8 µM | NCI-H226 38 µM | NCI-H23 47.4 µM | OVCAR-5 64.4 µM | OVCAR-8 42 µM | SF-268 23.9 µM | SF-295 42.1 µM | SK-MEL-28 22.1 µM | SK-MEL-2 20.4 µM | SK-MEL-5 28.1 µM | SNB-19 60.3 µM | UACC-257 36.6 µM | UACC-62 16.1 µM

O=S(OC12CC3CC(CC(C3)C1)C2)c1cc(Cl)cc(Cl)c1OCc1ccccc1 (stereo not drawn)
inactive: HCT-116 > 100 µM | HL-60 > 100 µM | HT-29 > 100 µM | KM12 > 100 µM | Malme-3M > 100 µM | NCI-H23 > 100 µM | OVCAR-5 > 100 µM | SF-268 > 100 µM | SK-MEL-28 > 100 µM | SK-MEL-2 > 100 µM | SNB-19 > 100 µM | SR > 100 µM | UACC-257 > 100 µM | UACC-62 > 100 µM

CC(C)C(=O)OCN(C)c1nc(N(C)COC(=O)C(C)C)nc(N(C)COC(=O)C(C)C)n1
inactive: HCT-116 32.1 µM | HL-60 22.3 µM | HT-29 25.2 µM | KM12 24.2 µM | NCI-H226 41.4 µM | NCI-H23 20.7 µM | OVCAR-5 27.7 µM | OVCAR-8 19.8 µM | SF-268 > 10 µM | SF-295 27.3 µM | SK-MEL-28 19.8 µM | SK-MEL-2 23.2 µM | SK-MEL-5 15.1 µM | SNB-19 42.1 µM | SR 22.8 µM | UACC-257 19.1 µM

COc1ccccc1CC(C)N (stereo not drawn)
inactive: HCT-116 > 100 µM | HL-60 > 100 µM | HOP-92 > 100 µM | HT-29 > 100 µM | IGROV-1 > 100 µM | KM12 > 100 µM | Malme-3M > 100 µM | NCI-H226 > 100 µM | NCI-H23 > 100 µM | OVCAR-5 > 100 µM | OVCAR-8 > 100 µM | SF-268 > 100 µM | SF-295 > 100 µM | SK-MEL-28 > 100 µM | SK-MEL-2 > 100 µM | SK-MEL-5 > 100 µM | SNB-19 > 100 µM | UACC-257 > 100 µM | UACC-62 > 100 µM

CC1NCCc2c1[nH]c1cc(O)ccc21 (stereo not drawn)
inactive: HCT-116 > 100 µM | HL-60 > 100 µM | HOP-92 > 100 µM | HT-29 > 100 µM | IGROV-1 > 100 µM | KM12 > 100 µM | Malme-3M > 100 µM | NCI-H226 > 100 µM | NCI-H23 > 100 µM | OVCAR-5 > 100 µM | OVCAR-8 > 100 µM | SF-268 > 100 µM | SF-295 > 100 µM | SK-MEL-28 > 100 µM | SK-MEL-2 > 100 µM | SK-MEL-5 > 100 µM | SNB-19 > 100 µM | UACC-257 > 100 µM | UACC-62 > 100 µM

O=C(O)CSC(CC1(c2ccc(Cl)cc2)NC(=O)CS1)c1ccc(Cl)cc1 (stereo not drawn)
inactive: HCT-116 > 100 µM | HL-60 > 100 µM | HOP-92 22.8 µM | HT-29 > 100 µM | IGROV-1 > 100 µM | KM12 > 100 µM | NCI-H23 > 100 µM | OVCAR-5 > 100 µM | OVCAR-8 > 100 µM | SF-268 > 100 µM | SF-295 > 100 µM | SK-MEL-2 83.6 µM | SK-MEL-5 > 100 µM | SNB-19 > 100 µM | SR > 100 µM | UACC-257 65.9 µM | UACC-62 85.1 µM

CCC(C)[C@H]1C(=O)N=C(N)N1C(=O)OCc1ccccc1 (stereo partly drawn)
inactive: HCT-116 > 100 µM | HL-60 > 100 µM | HT-29 > 100 µM | IGROV-1 > 100 µM | KM12 > 100 µM | Malme-3M > 100 µM | NCI-H226 > 100 µM | NCI-H23 > 100 µM | OVCAR-5 > 100 µM | OVCAR-8 > 100 µM | SF-268 > 100 µM | SF-295 > 100 µM | SK-MEL-28 > 100 µM | SK-MEL-2 > 100 µM | SK-MEL-5 > 100 µM | SNB-19 > 100 µM | SR > 100 µM | UACC-257 > 100 µM | UACC-62 > 100 µM

Cc1cc(O)c2c(c1)C(=O)c1c(c(O)cc(O)c1-c1c(O)cc(O)c3c1C(=O)c1cc(C)cc(O)c1C3=O)C2=O [SKYRIN]
inactive: HCT-116 8.99 µM | HL-60 7.11 µM | HOP-92 13.1 µM | HT-29 13.1 µM | IGROV-1 12.9 µM | KM12 9.08 µM | Malme-3M 15 µM | NCI-H226 3.07 µM | NCI-H23 13.1 µM | OVCAR-5 38 µM | OVCAR-8 8.26 µM | SF-268 13.9 µM | SF-295 9.25 µM | SK-MEL-28 11.7 µM | SK-MEL-2 11.5 µM | SK-MEL-5 9.44 µM | SNB-19 2.5 µM | UACC-257 17.5 µM | UACC-62 10.4 µM
